Reference: patent US20220089609A1, “SUBSTITUTED QUINAZOLINONE DERIVATIVES AND THEIR USE AS POSITIVE ALLOSTERIC MODULATORS OF MGLUR4” (DOMAIN THERAPEUTICS, priority 2018, published 2022)
Structures can show the parent of a compound that is named as a salt.

Target: T1, human mGluR4 (hmGluR4) (Homo sapiens, UniProt Q14833)
T1 construct: expressed in transfected cells; host or cells: HEK-293 cells, transient co-transfection by electroporation
Test: Calcium assay EC50 determination, positive allosteric modulator activity on hmGluR4 transiently over-expressed in HEK-293 cells
Format: cell-based
Conditions: for EC50: PAM mode with EC20 glutamate, hmGluR4 in HEK-293 cells, intracellular calcium (Fluo4AM), read-out: mGluR4 positive allosteric modulator activity, half maximal effective concentration (EC50); for PAM activity on mGluR4: up to 100 μM
Procedure: Compounds are tested successively for their agonist and positive allosteric modulator activities on human mGluR4 (hmGluR4) transiently over-expressed in HEK-293 cells. Compounds exert agonist activity if, by themselves in absence of glutamate, they are able to activate hmGluR4; and they exert positive allosteric modulator activity if they increase the action of glutamate.
HEK-293 cells are maintained in Modified Eagle's Medium supplemented with 10% Foetal Calf Serum, 1% Penicillin/Streptomycin and 1% non-essential amino acids at 37° C./5% CO2.
Cells are co-transfected by electroporation with four DNA plasmids encoding hmGluR4, a chimeric G protein allowing redirection of the activation signal to intracellular calcium pathway, and glutamate transporters to decrease extracellular glutamate concentration so as to limit receptor desensitization. After transfection, cells are cultured for 24 h at 37° C./5% CO2.
Calcium Assay EC50 determination
Receptor activity is detected by changes in intracellular calcium measured using the fluorescent Ca^2+ sensitive dye, Fluo4AM (Molecular Probes).
On the day of the assay, culture medium is aspirated and replaced during 3 hours by medium without serum supplemented with 1% Glutamax, 1% Penicillin/Streptomycin and 1% non-essential amino acids. Then, cells are washed with freshly prepared buffer B (HBSS 1× (PAA), Hepes 20 mM, MgSO4-7H2O 1 mM, Na2CO3 3.3 mM, CaCl2-2H2O 1.3 mM, 0.1% BSA, Probenecid 2.5 mM) and loaded at 37° C. in 5% CO2 for 1.5 hours with buffer B containing 1 μM Fluo4AM, 0.1 mg/mL Pluronic Acid, 7 μg/mL Glutamate Pyruvate Transaminase and 2 mM sodium pyruvate. Afterwards cells are washed twice with buffer B. Then cells are detached using StemPro Accutase (Fisher Scientific), resuspended in buffer B and seeded in 384 well plate at a density of 30,000 cells per well. Addition of compounds and intracellular Ca^2+ measurements (excitation 485 nm, emission 525 nm) are performed by the fluorescence microplate reader FLIP^Tetra (Molecular Devices).
Agonist and positive allosteric modulator activities of compounds are consecutively evaluated on the same cell plate. Agonist activity is first tested during 10 minutes with the addition of compound alone on the cells. Then, cells are stimulated by an EC20 glutamate concentration and fluorescence is recorded for additional 3 minutes. EC20 glutamate concentration is the concentration giving 20% of the maximal glutamate response. Agonist or positive allosteric modulator activity(ies) are evaluated in comparison to basal signals evoked by buffer B or EC20 glutamate alone, respectively.

T1 sequence (Q14833 33-912): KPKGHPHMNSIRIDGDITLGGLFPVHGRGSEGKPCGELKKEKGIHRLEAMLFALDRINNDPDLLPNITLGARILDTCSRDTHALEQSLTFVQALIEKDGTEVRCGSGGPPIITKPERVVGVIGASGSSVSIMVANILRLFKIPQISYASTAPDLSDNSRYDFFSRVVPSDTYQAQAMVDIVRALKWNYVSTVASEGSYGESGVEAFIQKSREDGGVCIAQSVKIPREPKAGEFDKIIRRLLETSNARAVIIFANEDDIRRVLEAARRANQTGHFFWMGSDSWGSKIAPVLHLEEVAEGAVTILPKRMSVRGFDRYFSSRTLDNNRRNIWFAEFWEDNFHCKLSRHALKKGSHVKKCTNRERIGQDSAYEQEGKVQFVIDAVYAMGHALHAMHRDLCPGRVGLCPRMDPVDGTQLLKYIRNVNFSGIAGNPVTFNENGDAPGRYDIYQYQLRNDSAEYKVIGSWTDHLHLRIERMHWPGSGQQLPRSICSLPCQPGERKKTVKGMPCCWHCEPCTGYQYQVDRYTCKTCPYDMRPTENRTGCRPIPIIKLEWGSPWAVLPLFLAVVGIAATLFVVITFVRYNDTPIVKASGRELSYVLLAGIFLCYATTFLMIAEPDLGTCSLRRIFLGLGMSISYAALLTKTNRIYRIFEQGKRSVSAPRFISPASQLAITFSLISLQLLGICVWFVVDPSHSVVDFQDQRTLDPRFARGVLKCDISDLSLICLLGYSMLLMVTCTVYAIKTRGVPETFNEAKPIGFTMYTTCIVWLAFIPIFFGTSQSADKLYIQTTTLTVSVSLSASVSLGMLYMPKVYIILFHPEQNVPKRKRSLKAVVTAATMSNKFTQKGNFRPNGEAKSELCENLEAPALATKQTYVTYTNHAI

SMILES	EC50	PAM activity on mGluR4
Cc1cc(CCCN2CCOCC2)cc2c(=O)[nH]c(-c3cc4ccsc4cn3)nc12 [Compound 99, 8-Methyl-6-(3-morpholin-4-yl-propyl)-2-thieno[2,3-c]pyridin-5-yl-3H-quinazolin-4-one hydrochloride]	100 to 1000 nM	–
Cl.O=c1[nH]c(-c2cccnc2)nc2ccc(OCCCc3ccncc3)cc12 [Compound 6, 2-Pyridin-3-yl-6-(3-pyridin-4-yl-propoxy)-3H-quinazolin-4-one hydrochloride]	–	no PAM activity
CCC(=O)N1CCC(COc2cc(C)c3nc(-c4cc5ccsc5cn4)[nH]c(=O)c3c2)CC1 [Compound 87, 8-Methyl-6-(1-propionyl-piperidin-4-ylmethoxy)-2-thieno[2,3-c]pyridin-5-yl-3H-quinazolin-4-one]	100 to 1000 nM	–
CC(=O)N1CCC(c2ccc3nc(-c4cc5ccsc5cn4)[nH]c(=O)c3c2)CC1 [Compound 57, 6-(1-acetyl-piperidin-4-yl)-2-thieno[2,3-c]pyridin-5-yl-3H-quinazolin-4-one]	100 to 1000 nM	–
Cc1cccc(-c2nc3ccc(OCCCc4ccncc4)cc3c(=O)[nH]2)n1 [Compound 12, 2-(6-methyl-2-pyridyl)-6-[3-(4-pyridyl)propoxy]-3H-quinazolin-4-one dihydrochloride]	100 to 1000 nM	–
O=c1[nH]c(-c2cc(C(F)(F)F)ccn2)nc2ccc(OCCC3CCOCC3)cc12 [Compound 58, 6-[2-(Tetrahydro-pyran-4-yl)-ethoxy]-2-(4-trifluoromethyl-pyridin-2-yl)-3H-quinazolin-4-one]	100 to 1000 nM	–
Cc1cc(OCCCc2ccncc2)cc2c(=O)[nH]c(-c3cc(C(F)(F)F)ccn3)nc12 [Compound 101, 8-Methyl-6-(3-pyridin-4-yl-propoxy)-2-(4-trifluoromethyl-pyridin-2-yl)-3H-quinazolin-4-one hydrochloride]	100 to 1000 nM	–
Cc1cc(NCC(C)(C)O)cc2c(=O)[nH]c(-c3cc4ccsc4cn3)nc12 [Compound 94, 6-(2-Hydroxy-2-methyl-propylamino)-8-methyl-2-thieno[2,3-c]pyridin-5-yl-3H-quinazolin-4-one]	100 to 1000 nM	–
Cc1cc(OC2CCN(C3COC3)CC2)cc2c(=O)[nH]c(-c3cc(C(F)(F)F)ccn3)nc12 [Compound 104, 8-Methyl-6-(1-oxetan-3-yl-piperidin-4-yloxy)-2-(4-trifluoromethyl-pyridin-2-yl)-3H-quinazolin-4-one]	100 to 1000 nM	–
Cc1cc(OCCN2CCC3(CC2)COC3)cc2c(=O)[nH]c(-c3cc4ccsc4cn3)nc12 [Compound 84, 8-Methyl-6-[2-(2-oxa-7-aza-spiro[3.5]non-7-yl)-ethoxy]-2-thieno[2,3-c]pyridin-5-yl-3H-quinazolin-4-one]	100 to 1000 nM	–
Cc1cc(OCCCc2ccncc2)cc2c(=O)[nH]c(-c3cc4ccsc4cn3)nc12 [Compound 65, 8-Methyl-6-(3-pyridin-4-yl-propoxy)-2-thieno[2,3-c]pyridin-5-yl-3H-quinazolin-4-one hydrochloride]	≤ 100 nM	–
Cc1cc(OCCCc2ccncc2)cc2c(=O)[nH]c(-c3cc4cccn4cn3)nc12 [Compound 106, 8-methyl-6-(3-pyridin-4-yl-propoxy)-2-pyrrolo[1,2-c]pyrimidin-3-yl-3H-quinazolin-4-one hydrochloride]	≤ 100 nM	–
O=c1[nH]c(-c2cc(C(F)(F)F)ccn2)nc2ncc(OCCCc3ccncc3)cc12 [Compound 68, 6-(3-Pyridin-4-yl-propoxy)-2-(4-trifluoromethyl-pyridin-2-yl)-3H-pyrido[2,3-d]pyrimidin-4-one hydrochloride]	> 10000 nM	–
CCc1ccnc(-c2nc3ccc(OCCCc4ccncc4)cc3c(=O)[nH]2)c1 [Compound 16, 2-(4-ethyl-2-pyridyl)-6-[3-(4-pyridyl)propoxy]-3H-quinazolin-4-one dihydrochloride]	1000 to 10000 nM	–
Cn1c(-c2cc3sccc3cn2)nc2ccc(OCCCc3ccncc3)cc2c1=O [Compound 38, 3-Methyl-6-(3-pyridin-4-yl-propoxy)-2-thieno[3,2-c]pyridin-6-yl-quinazolin-4-one]	–	no PAM activity
CCC(=O)N1CC[C@H](Oc2cc(C)c3nc(-c4cc5ccsc5cn4)[nH]c(=O)c3c2)C1 [Compound 82-S, S-8-Methyl-6-(1-propionyl-pyrrolidin-3-yloxy)-2-thieno[2,3-c]pyridin-5-yl-3H-quinazolin-4-one]	≤ 100 nM	–
Cc1cc(N2CCC3(CCOCC3)C2)cc2c(=O)[nH]c(-c3cc4ccsc4cn3)nc12 [Compound 93, 8-Methyl-6-(8-oxa-2-aza-spiro[4.5]dec-2-yl)-2-thieno[2,3-c]pyridin-5-yl-3H-quinazolin-4-one]	≤ 100 nM	–
O=c1[nH]c(-c2cc(C(F)(F)F)ccn2)nc2c(Cl)cc(CCN3CCOCC3)cc12 [Compound 154, 8-Chloro-6-(2-morpholinoethyl)-2-(4-(trifluoromethyl)pyridin-2-yl)quinazolin-4(3H)-one hydrochloride]	100 to 1000 nM	–

The next lines start with the values.

EC50	PAM activity on mGluR4	SMILES
≤ 100 nM	–	Cc1cc(OCC2CCOC2)cc2c(=O)[nH]c(-c3cc4ccsc4cn3)nc12 (centres unmarked) [Compound 80, 8-Methyl-6-(tetrahydro-furan-3-ylmethoxy)-2-thieno[2,3-c]pyridin-5-yl-3H-quinazolin-4-one]
≤ 100 nM	–	Cc1cc(OCC2CCN(S(C)(=O)=O)CC2)cc2c(=O)[nH]c(-c3cc4ccsc4cn3)nc12 [Compound 88, 6-(1-Methanesulfonyl-piperidin-4-ylmethoxy)-8-methyl-2-thieno[2,3-c]pyridin-5-yl-3H-quinazolin-4-one]
≤ 100 nM	–	O=c1[nH]c(-c2cccc(C(F)(F)F)n2)nc2ccc(OCCCc3ccncc3)cc12 [Compound 17, 6-[3-(4-pyridyl)propoxy]-2-[6-(trifluoromethyl)-2-pyridyl]-3H-quinazolin-4-one hydrochloride]
≤ 100 nM	–	Cc1cc(OC2CCC(=O)N(C)C2)cc2c(=O)[nH]c(-c3cc4ccsc4cn3)nc12 (single isomer, unassigned) [Compound 81-E1, (R or S)-8-Methyl-6-((1-methyl-6-oxopiperidin-3-yl)oxy)-2-(thieno[2,3-c]pyridin-5-yl)quinazolin-4(3H)-one]
≤ 100 nM	–	Cc1cc(OC2CCN(C3COC3)CC2)cc2c(=O)[nH]c(-c3cc4cccn4cn3)nc12 [Compound 109, 8-methyl-6-(1-oxetan-3-yl-piperidin-4-yloxy)-2-pyrrolo[1,2-c]pyrimidin-3-yl-3H-quinazolin-4-one]
≤ 100 nM	–	Cc1cc(CCN2CCOCC2)cc2c(=O)[nH]c(-c3cc(C(F)(F)F)ccn3)nc12 [Compound 117, 8-methyl-6-(2-morpholinoethyl)-2-[4-(trifluoromethyl)-2-pyridyl]-3H-quinazolin-4-one hydrochloride]
≤ 100 nM	–	Cc1cc(OCC2CCOC2)cc2c(=O)[nH]c(-c3cc4cccn4cn3)nc12 (centres unmarked) [Compound 107, 8-methyl-2-pyrrolo[1,2-c]pyrimidin-3-yl-6-(tetrahydro-furan-3-ylmethoxy)-3H-quinazolin-4-one]
≤ 100 nM	–	Cc1cc(O[C@@H]2CC(=O)N(C)C2)cc2c(=O)[nH]c(-c3cc4sccc4cn3)nc12 [Compound 140-R, 8-Methyl-6-[(3R)-1-methyl-5-oxo-pyrrolidin-3-yl]oxy-2-thieno[3,2-c]pyridin-6-yl-3H-quinazolin-4-one]
